From patent publication US5858684A, “Method of screening calcium receptor-active molecules” (priority 1995, dated 1999) come the findings set out here.

Read-outs that look alike come from different tables or passages of the source.

The test system of series [1] is parathyroid cell calcium receptor. Format: cell-based. Particulars: for response of bovine parathyroid cells or Xenopus oocytes expressing calcium receptors to mGluR agonists: bovine parathyroid cells or calcium receptor-expressing Xenopus oocytes; for mobilization of intracellular Ca2+: 500 μM.
Procedure: For example, bovine parathyroid cells loaded with fura-2 are initially suspended in buffer containing 0.5 mM CaCl2. A test substance is added to the cuvette in a small volume (5-15 μl) and changes in the fluorescence signal are measured. Cumulative increases in the concentration of the test substance are made in the cuvette until some predetermined concentration is achieved or no further changes in fluorescence are noted.
This section describes procedures used to obtain and treat parathyroid cells from calves and humans. […] Human parathyroid glands, were obtained from patients undergoing surgical removal of parathyroid tissue for primary or uremic hyperparathyroidism (uremic HPT), and were treated similarly to bovine tissue.
Glands were trimmed of excess fat and connective tissue and then minced with fine scissors into cubes approximately 2-3 mm on a side. Dissociated parathyroid cells were prepared by collagenase digestion and then purified by centrifugation in Percoll buffer. The resultant parathyroid cell preparation was essentially devoid of red blood cells, adipocytes, and capillary tissue as assessed by phase contrast microscopy and Sudan black B staining. Dissociated and purified parathyroid cells were present as small clusters containing 5 to 20 cells.
(§1) The cells were then pelleted, resuspended in the same buffer, but lacking the ester, and incubated a further 15 minutes at 37° C. The cells were subsequently washed twice with PCB containing 0.5 mM CaCl2 and 0.5% BSA and maintained at room temperature (about 20° C.). Immediately before use, the cells were diluted five-fold with prewarmed 0.5 mM CaCl2 -PCB to obtain a final BSA concentration of 0.1%. The concentration of cells in the cuvette used for fluorescence recording was 1-2×10^6 /ml.
(§2) The fluorescence of indicator-loaded cells was measured at 37° C. in a spectrofluorimeter (Biomedical Instrumentation Group, University of Pennsylvania, Philadelphia, Pa.) equipped with a thermostated cuvette holder and magnetic stirrer using excitation and emission wavelengths of 340 and 510 nm, respectively. […] Leakage of dye is dependent on temperature and most occurs within the first 2 minutes after warming the cells in the cuvette. Dye leakage increases only very slowly thereafter. To correct the calibration for dye leakage, cells were placed in the cuvette and stirred at 37° C. for 2-3 minutes. The cell suspension was then removed, the cells pelleted, and the supernatant returned to a clean cuvette. […] This estimate was subtracted from the apparent Fmin.
Dissociated bovine parathyroid cells were purified on gradients of Percoll and cultured overnight in serum-free medium.
For series [2], the target named is T1, bovine parathyroid cell calcium receptor (BoPCaR 1) (Bos taurus, UniProt P35384).
T1 construct: Xenopus oocytes were injected with BoPCaR 1, the 5.3 Kb cDNA encoding a bovine parathyroid cell calcium receptor; expressed in transfected cells; host or cells: Xenopus laevis oocytes injected with cRNA/cDNA of BoPCaR 1
T1 sequence (P35384 20-1085): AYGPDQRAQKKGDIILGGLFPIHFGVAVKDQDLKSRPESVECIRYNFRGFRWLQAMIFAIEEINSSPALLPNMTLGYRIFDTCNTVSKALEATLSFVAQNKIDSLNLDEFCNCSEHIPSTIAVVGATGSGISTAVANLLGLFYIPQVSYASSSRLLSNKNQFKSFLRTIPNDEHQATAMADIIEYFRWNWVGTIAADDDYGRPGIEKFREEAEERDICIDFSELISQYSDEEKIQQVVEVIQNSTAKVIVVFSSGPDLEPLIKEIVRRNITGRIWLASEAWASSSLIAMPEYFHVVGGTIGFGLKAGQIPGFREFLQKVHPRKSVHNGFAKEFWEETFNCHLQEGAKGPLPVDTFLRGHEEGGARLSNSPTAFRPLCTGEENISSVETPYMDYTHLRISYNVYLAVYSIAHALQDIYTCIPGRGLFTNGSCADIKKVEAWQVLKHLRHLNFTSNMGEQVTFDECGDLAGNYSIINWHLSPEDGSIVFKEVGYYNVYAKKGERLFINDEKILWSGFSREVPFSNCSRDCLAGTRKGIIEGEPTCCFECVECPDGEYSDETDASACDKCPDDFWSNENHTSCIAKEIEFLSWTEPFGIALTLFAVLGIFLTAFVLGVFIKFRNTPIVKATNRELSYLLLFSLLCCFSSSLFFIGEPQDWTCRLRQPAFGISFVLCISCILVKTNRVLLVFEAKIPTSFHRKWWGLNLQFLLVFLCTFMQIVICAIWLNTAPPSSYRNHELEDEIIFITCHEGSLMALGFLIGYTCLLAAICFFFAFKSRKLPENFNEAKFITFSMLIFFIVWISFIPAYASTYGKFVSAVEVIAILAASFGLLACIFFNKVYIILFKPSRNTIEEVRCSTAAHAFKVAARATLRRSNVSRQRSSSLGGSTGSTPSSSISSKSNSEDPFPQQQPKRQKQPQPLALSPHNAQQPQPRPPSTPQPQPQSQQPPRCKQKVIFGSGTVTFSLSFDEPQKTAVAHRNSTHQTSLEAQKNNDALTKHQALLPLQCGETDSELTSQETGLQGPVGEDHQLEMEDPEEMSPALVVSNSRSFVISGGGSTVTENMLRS
As to the kind of experiment: Cl- current in Xenopus oocytes expressing BoPCaR 1. Format: cell-based. The method, then: Following incubation, an oocyte was placed into a 100-μl plastic chamber and superfused with MBS at a flow rate of 0.5 ml/min using a peristaltic pump. Test molecules or inorganic polycations were added by rapidly moving the tubing into different buffers. Recording and current-passing electrodes were constructed from thin-wall capillary tubing pulled to a resistance of 1-3 Mohms and filled with 3M KCl. […] Currents were recorded directly onto a strip chart recorder.
The techniques used to clone the parathyroid calcium receptor are briefly described in this example; a more complete description of the techniques is provided in preceding sections, which describe techniques which may be used to clone additional forms of the Ca^2+ -receptor from other cell types. Poly(A^+)-enriched mRNA was initially prepared from bovine parathyroid glands by extracting with guanidinium thiocyanate, centrifugation through CsCl and oligo(dT) cellulose chromatography. […] No such currents were elicited in control eggs injected with water.
These responses are mediated by the following series of biochemical events:
Xenopus oocytes were injected with BoPCaR 1, the 5.3 Kb cDNA encoding a bovine parathyroid cell calcium receptor as described in Example 25. After two to three days, Cl^- currents were examined in the oocytes using a two-electrode voltage clamp.
Xenopus oocytes were injected with BoPCaR 1 as described in Example 25. After two to three days, Cl^- currents were examined in the oocytes using two electrode voltage clamp.

A further series in a line: net positive charge. Format: physicochemical.
Series [3] concerns increases in [Ca2+]i elicited by extracellular Ca2+ in bovine parathyroid cells. As to the kind of experiment: block of extracellular Ca2+-induced [Ca2+]i increase / Ca2+ influx in bovine parathyroid cells. Format: cell-based. Particulars: 100 μM.
Procedure: as §1, §2

Turning to `N[C@@]1(C(=O)O)CC[C@@H](C(=O)O)C1` (relative stereo) [trans-ACPD], the “response of bovine parathyroid cells or Xenopus oocytes expressing calcium receptors to mGluR agonists” value in series [1] was “did not respond”. With `CC1=C(C(=O)OC(C)C)C(c2cccc3nonc23)C([N+](=O)[O-])=C(C)N1` (single isomer, unassigned; (+)) [(+) 202-791], the “effect on basal [Ca2+]i or increases evoked by extracellular Ca2+” value in series [1] (1 μM) is on record as “None”. Regarding `CC1=C(C(=O)OC(C)C)C(c2cccc3nonc23)C([N+](=O)[O-])=C(C)N1` (single isomer, unassigned; (-)) [(-) 202-791], the “effect on basal [Ca2+]i or increases evoked by extracellular Ca2+” value in series [1] (1 μM) is “None”. For the molecule `O=C(O)c1c2ccccc2cc2ccccc12` [9AC], the “effect on activated chloride currents” value in series [2] is listed as “blocks the currents”. Consider `CNc1ccc2oc(C[C@H]3O[C@@]4(CC[C@H]3C)O[C@H]([C@H](C)C(=O)c3ccc[nH]3)[C@H](C)C[C@H]4C)nc2c1C(=O)O` [A23187], for which the “effect on activated chloride currents” value in series [2] is on record as “activated”. In the case of `N=C(N)NCCC[C@H](N)C(=O)NCCCNCCCNCCCCCNC(=O)[C@H](CC(N)=O)NC(=O)Cc1ccc(O)cc1O` [Argiotoxin-636], the “net positive charge” value in “net positive charge” is “+4”. Moreover, in series [1] (400 μM), the “increase in [Ca2+]i (words)” value is recorded as “did not elicit increases” and the “potentiation of cytosolic Ca2+ response to extracellular Ca2+” value is given as “did potentiate cytosolic”. For the same molecule, in series [1] (tested at concentrations similar to 100 to 300 μM), the “increase in [Ca2+]i (words)” value is “had no effect”.

Usually EC50 stands for the midpoint of the concentration-response curve. Take `N=C(N)NCCC[C@H](N)C(=O)NCCCNCCCNCCCCCNC(=O)[C@H](CC(N)=O)NC(=O)Cc1c[nH]c2cccc(O)c12` [Argiotoxin-659]: in the series “net positive charge”, the “Net (+) Charge (Table 1)” value was “+4” and the “net positive charge” value is on record as “+4”. In series [1] (bovine parathyroid cells), the “concentrations evoking transient increases in [Ca2+]i” value lay within 100 to 300 µM. In addition, the EC50 in series [1] (read-out: EC50 (Table 1), parathyroid cells, screened as in Example 1) amounted to 300 µM. In addition, in series [1] (read-out: EC50 for mobilization of intracellular Ca2+, bovine parathyroid cells), the EC50 was 300 µM. Take `COC(=O)C1=C(C)NC(C)=C([N+](=O)[O-])C1c1ccccc1C(F)(F)F` (stereo not shown) [BAY K 8644]: in series [1] (1 μM), the “effect on basal [Ca2+]i or increases evoked by extracellular Ca2+” value is listed as “None”. Turning to `NC[C@H]1O[C@H](O[C@H]2[C@H](O)[C@@H](O[C@H]3O[C@H](CO)[C@@H](O)[C@H](N)[C@H]3O)[C@H](N)C[C@@H]2N)[C@H](N)[C@@H](O)[C@@H]1O` [Bekanamycin], in the series “net positive charge”, the “Net (+) Charge (Table 1)” value is “+5”. Moreover, in “net positive charge” (pH 7.3), the net positive charge result is “+5”. In addition, the EC50 in series [1] (read-out: EC50 for mobilization of intracellular Ca2+ (Table 4), screened as in Example 1) came to 200 µM. `NCCCCCN` [Cadaverine, cadaverine]: the “net positive charge” value in “net positive charge” is recorded as “+2”. As for `COc1ccc(CCN(C)CCCC(C#N)(c2cc(OC)c(OC)c(OC)c2)C(C)C)cc1OC` [D-600], the “potentiation of mobilization of intracellular Ca2+ elicited by extracellular divalent cations” value in series [1] (100 μM) is “potentiated the mobilization of intracellular”. Further, the “change in [Ca2+]i” value in series [1] (100 μM, 0.5 mM extracellular Ca2+) is listed as “evoked no change”. The “increase in [Ca2+]i at intermediate extracellular Ca2+” value in series [1] (100 μM, 1-[…] extracellular Ca2+) was “small, but robust increase”. Besides, in series [3], the “block of influx of extracellular Ca2+” value was “blocked the influx of extracellular”. With `O=C(O)CN(CCOCCOCCN(CC(=O)O)CC(=O)O)CC(=O)O` [EGTA], in series [2] (EGTA 100 μM, Gd3+ 600 μM), the “effect on inward currents to Gd3+” value is reported as “prevents oocytes expressing the calcium receptor from responding”. `NC[C@H]1O[C@H](O[C@H]2[C@H](O)[C@@H](O[C@H]3O[C@H](CO)[C@@H](O)[C@H](N)[C@H]3O)[C@H](N)C[C@@H]2N)[C@H](O)[C@@H](O)[C@@H]1O` [Kanamycin]: the net positive charge result in “net positive charge” (pH 7.3) is reported as “~+4.5”. For the same molecule, in series [1], the “mobilization of intracellular Ca2+” value is listed as “without effect”. In the case of `CCC[C@@H]1C[C@@H](C(=O)N[C@@H]([C@H]2O[C@H](SC)[C@H](O)[C@@H](O)[C@H]2O)[C@@H](C)O)N(C)C1` [Lincomycin], the net positive charge entry in the series “net positive charge” (pH 7.3) is “+1”. Moreover, in series [1], the “mobilization of intracellular Ca2+” value was “without effect”. As to `NCCCN(CCCN)CCCN(CCCN)CCCCN(CCCN)CCCN(CCCN)CCCN` [NPS 381, N^1,N^1,N^5, N^10,N^14, N^14-hexakis-(3-aminopropyl) spermine], the “Net (+) Charge (Table 1)” value in “net positive charge” was “+10”.

For `NCCCN(CCCN)CCCNCCCCNCCCN(CCCN)CCCN` [NPS 382, N^1,N^1,N^5,N^14, N^14-tetrakis-(3-aminopropyl)spermine], the “Net (+) Charge (Table 1)” value in the series “net positive charge” is listed as “+8”. Take `NCCCN1CCCN(CCCN)CCN(CCCN)CCCN(CCCN)CC1` [NPS 383]: the “Net (+) Charge (Table 1)” value in the series “net positive charge” is recorded as “+8”. For `COc1cccc([C@H](C)NCCCc2ccccc2Cl)c1` [NPS S-568], the concentration eliciting responses in series [2] (BoPCaR 1-injected oocytes) came out at 100 µM. For the molecule `CCCC(=O)N[C@@H](Cc1ccc(O)cc1)C(=O)NCCCCNCCCNCCCN` [Philanthotoxin-433], in “net positive charge”, the “net positive charge” value is “+3”. In series [1], the “mobilization of intracellular Ca2+” value was “without effect”. Regarding `NCCCCN` [Putrescine], the “net positive charge” value in the series “net positive charge” is “+2”. Consider `C[C@@H](NCCC(c1ccccc1)c1ccccc1)c1ccccc1` [R-Fendiline], for which, in series [1] (bovine parathyroid cells, fura-2, read-out: EC50 PARATHYROID (Table 6)), the concentration for a half-maximal effect (EC50) turned out to be 9 µM.

As for `[H]/N=C(/N)N[C@H]1[C@H](O)[C@@H](O)[C@H](O[C@@H]2O[C@@H](C)[C@](O)(C=O)[C@H]2O[C@@H]2O[C@@H](CO)[C@H](O)[C@@H](O)[C@@H]2NC)[C@@H](N/C(N)=N\[H])[C@@H]1O` [Streptomycin], the “Net (+) Charge (Table 1)” value in the series “net positive charge” was “+3”. For the same molecule, the net positive charge result in the series “net positive charge” (pH 7.3) is reported as “+3”. Also, the EC50 in series [1] (parathyroid cells, screened as in Example 1, read-out: EC50 (Table 1)) worked out at 600 µM.

Turning to `NCCNCCNCCNCCN` [Tetraethylenepentamine (TEPA), Tetraethylenepentamine], in “net positive charge”, the “Net (+) Charge (Table 1)” value is on record as “+5”. For `NCCNCCNCCN` [Triethylenetramine (TETA), triethylenetetramine], the “Net (+) Charge (Table 1)” value in the series “net positive charge” is given as “+4”. Also, in series [1] (read-out: EC50 (Table 3)), the half-maximal effective concentration (EC50) came to […]. For the molecule `CC(NCCCc1ccccc1)c1ccccc1` (stereo not shown) [compound 1D], in series [1] (vs R-fendiline), the “relative potency” value is reported as “nearly as potent as the parent molecule”. Regarding `COc1ccc([C@@H]2Sc3ccccc3N(CCN(C)C)C(=O)[C@@H]2OC(C)=O)cc1` [diltiazem], the “effective concentration, like verapamil and D-600” value in series [1] was determined as 100 µM. `N[C@@H](CCC(=O)O)C(=O)O` [glutamate]: the “response of bovine parathyroid cells or Xenopus oocytes expressing calcium receptors to mGluR agonists” value in series [1] is given as “did not respond”. `COc1cccc(C(C)NCCC(c2ccccc2)c2ccccc2)c1` (stereo not shown) [meta-Methoxyfendiline]: in series [1] (vs NPS 467), the “relative potency” value is reported as “as potent as NPS 467”. Consider `COC(=O)C1=C(C)NC(C)=C(C(=O)OC)C1c1ccccc1[N+](=O)[O-]` [nifedipine], for which the “effect on basal [Ca2+]i or increases evoked by extracellular Ca2+” value in series [1] is recorded as “None”.

Take `CCOC(=O)C1=C(C)NC(C)=C(C(=O)OC)C1c1cccc([N+](=O)[O-])c1` (stereo not shown) [nitrendipine]: the “effect on basal [Ca2+]i or increases evoked by extracellular Ca2+” value in series [1] (1 μM) was “None”.

Regarding `N[C@@H](Cn1oc(=O)[nH]c1=O)C(=O)O` [quisqualate], the “response of bovine parathyroid cells or Xenopus oocytes expressing calcium receptors to mGluR agonists” value in series [1] was “did not respond”. Consider `COc1ccc(CCN(C)CCCC(C#N)(c2ccc(OC)c(OC)c2)C(C)C)cc1OC` (stereo not shown) [verapamil], for which the “block of influx of extracellular Ca2+” value in series [3] is on record as “blocked the influx of extracellular”. As to Gentamicin, the “Net (+) Charge (Table 1)” value in “net positive charge” was “+5”. Besides, the net positive charge result in “net positive charge” (pH 7.3) is listed as “+5”.
